Earlier results, collected in patent US8109064B2, “Methods and systems for contact lens sterilization” (Menicon Signapore Pte Ltd., priority 2006, dated 2012).

Settings: in vivo

In the case of polyhexamine biguanide [PHMB], the corneal staining is listed as “implicated in corneal staining”.
